In US5876676A, “Preservation of blood platelets” (priority 1996, dated 1999):
Starred links: 1 amine or outer side, 2 acyl side, 3 side chain; linkers in the order of their positions; H or OH if unused. Positions of bridges follow the written chain, without caps; N, C: chain ends. Non-standard residues stand in square brackets, D forms with d. Residues, ends and D or L forms follow the SMILES beside them. Trp(2-yl) = O=C([C@H](Cc1c([*:3])[nH]c2ccccc12)N[*:1])[*:2]; Leu(4R-OH,5-OH) = C[C@](O)(CO)C[C@H](N)C(=O)O; cisHyp = O=C(O)[C@@H]1C[C@H](O)CN1

Assays:
[1] = system: platelets; assay: Morphology and cytoskeleton of Quin-2-loaded platelets, resting or activated (light and electron microscopy); assay type: cell-based, human
Protocol: (§1) Human blood from healthy volunteers, drawn into 0.1 vol of Aster-Jandl anticoagulant, was centrifuged at 110 g for 10 min. The platelet-rich plasma was gel-filtered through a Sepharose 2B column equilibrated and eluted with a solution containing 145 mM NaCl, 10 mM Hepes, 10 mM glucose, 0.5 mM Na2 HPO4, 5 mM KCl, 2 mM MgCl2, and 0.3% BSA, pH 7.4 (platelet buffer). 2 U/ml apyrase was added to the platelet suspension and the cells were left standing for 60 min. at 37° C. as previously reported (Hartwig, J., and M. DeSisto, 1991 J. Cell Biol. 112:407-425; Hartwig, J., et al. 1989 J. Cell Biol. 109:1571-1579). To maintain cytosolic calcium at or below its resting level during cell activation, cells were loaded with 30 uM Quin-2AM during minutes 30-60 of the rest period. The effect of Quin-2 was reversed by the addition of 1 mM CaCl2 to the bathing media before centrifugation of the Quin 2-loaded cells onto the coverslips or after the cells had been attached and formed filopodia on the coverslip. Glass-adherent, Quin-2 loaded cells were also treated with 1 mM CaCL2 and 20 nM of the ionophore A23187 for 15 seconds (s) and then detergent permeabilized. In some cases, platelets were used directly from platelet-rich plasma by diluting it 1:20 with platelet buffer containing, in addition, 0.1 mM EGTA and 2 U/ml apyrase. The diluted cells were incubated for 30 min. at 37° C. to insure a resting state.
Platelet suspensions were activated by the addition of 1 U/ml of thrombin (hereafter called thrombin-activated) for 15-30 seconds in studies of nucleation activity. Activation was terminated by permeabilizing the cells as detailed below. Glass activation was used for the morphological studies. Cells were glass-activated by centrifugation onto polylysine-coated glass coverslips at 250 g for 5 min. Coverslips were placed in the bottom of multiwell plates (24 or 96 wells), covered with 0.25 ml of platelet suspension, and centrifuged at 37° C. in a Sorvall HB-6000 centrifuge using multiwell carriers.
Light microscopy and electron microscopy of platelets and cytoskeletons were performed according to standard methods, see e.g., Hartwig, J., 1992, J. Cell Biol. 118(6):1421-1442. The localization of gelsolin in platelets was performed by gold labeling of cytoskeletons from resting and activated cells with antibodies to gelsolin. The affinity-purified goat anti-rabbit macrophage gelsolin IgG was described earlier (Hartwig, J., and M. DeSisto, 1991 J. Cell Biol. 112:407-425; Hartwig, J., and P. Shevlin, 1986 J. Cell Biol. 103:1007-1020).

[2] = system: platelets; assay: Nucleation activity in lysates from Quin-2-loaded, thrombin-activated platelets; assay type: cell-based, human
Protocol: as §1, with “In some cases, platelets were used directly from platelet-rich plasma by diluting it 1:20 with platelet buffer containing, in addition, 0.1 mM EGTA and 2 U/ml apyrase. The diluted cells were incubated for 30 min. at 37° C. to insure a resting state.” left out
The effect of cell lysates on the rate and extent of pyrene-labeled rabbit skeletal muscle actin was determined as described previously (Hartwig, J., and P. Janmey, 1989 Biochim. Biophys. Acta. 1010:64-71). […] The relative contribution of nuclei with barbed or pointed ends in the cell lysates was determined by adding 2 uM cytochalasin B to the pyrene nucleation assay system. […] To determine if the measured stimulation of actin assembly and its decay with time was due to the growth of pyrene-actin addition onto cellular filaments subject to depolymerization in the diluted lysate, 0.1 uM phalloidin or phallacidin was added to the cell lysates during their preparation to stabilize the filaments. […] However, we also determined that the soluble phase from cells permeabilized with detergent in the presence of EGTA contained calcium dependent nucleation activity. […]

[3] = Quin-2-loaded platelets, glass activated

CNc1ccc2oc(C[C@H]3O[C@@]4(CC[C@H]3C)O[C@H]([C@H](C)C(=O)c3ccc[nH]3)[C@H](C)C[C@H]4C)nc2c1C(=O)O [A23187]
Cytoskeletons of Quin-2-loaded, glass-activated cells after external calcium plus ionophore ([1]; added external calcium (1 mM CaCl2) with 20 nM A23187, within seconds): completely disrupted

COc1cc(N(CC(=O)OCOC(C)=O)CC(=O)OCOC(C)=O)c2nc(COc3cc(C)ccc3N(CC(=O)OCOC(C)=O)CC(=O)OCOC(C)=O)ccc2c1 [Quin-2AM, acetoxymethyl ester of quin-2]
Effect on structure of resting cells and their cytoskeletons ([1]; 30 uM Quin-2AM loading, light microscope): no effect
Swelling, actin filament severing and extension of lamellipodial networks associated with platelet activation ([1]; quin-2AM prior to activation with thrombin): prevented

COc1cc(N(CC(=O)O)CC(=O)O)c2nc(COc3cc(C)ccc3N(CC(=O)O)CC(=O)O)ccc2c1 [Quin-2]
activity at 30 µM ([2]; Homo sapiens, Platelet, Quin-2-loaded, thrombin-activated, assayed immediately, read-out: Nucleation activity relative to lysates from untreated and activated cells): 28%
Stability of nucleation activity in detergent lysates ([2]; Quin-2-loaded cells, lysates incubated as long as 10 min before assay): no loss in its activity
Rearrangements of gelsolin on activation (immunoelectron microscopy) ([1]; Quin-2-loaded and activated cells): did not occur
Filopodia length [1, 3]: 2-5 um
Morphology after glass activation [1, 3]: extend filopodia but not lamellipodia

C[C@@H]1NC(=O)[C@H](C[C@@](C)(O)CO)NC(=O)[C@@H]2Cc3c([nH]c4ccccc34)SC[C@H](NC(=O)[C@@H]([C@H](C)O)NC1=O)C(=O)N1C[C@@H](O)C[C@H]1C(=O)N[C@@H](C)C(=O)N2 [phalloidin] (cyclo(A[dT]C[cisHyp]A[Trp(2-yl)][Leu(4R-OH,5-OH)]); thioether 3-6)
Effect on nucleation activity in lysates from Quin-2-loaded cells ([2]; 0.1 uM phalloidin in lysates, Quin-2-loaded, thrombin-activated): no effect
